Our source for the IC50 values is US8877741B2, “Pyrrolidine derivatives, pharmaceutical compositions and uses thereof” (Boehringer Ingelheim International GmbH, priority 2013, dated 2014).

The structures appear in SMILES notation.

The target of the test is human ACC2 (Homo sapiens (Human), UniProt O00763). Nature of the test: ACC2 assay, spectrophotometric 384 well assay (NADH-linked kinetic method). In kind it is biochemical. The note with it: human ACC2 construct lacking the 128 N-terminal amino acids; coupled lactate dehydrogenase/pyruvate kinase reaction, 340 nm, 25° C. The method, boiled down: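 ADP formation was monitored as NADH consumption at 340 nm for 15 min at 25 °C, using baculovirus-expressed human ACC2 missing its first 128 amino acids, with 500 μM ATP and 2000 μM each of acetyl-CoA and NADH (final). IC50 was fitted by non-linear regression on low-control-subtracted slopes.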
Chain of human ACC2 (O00763 129-2458): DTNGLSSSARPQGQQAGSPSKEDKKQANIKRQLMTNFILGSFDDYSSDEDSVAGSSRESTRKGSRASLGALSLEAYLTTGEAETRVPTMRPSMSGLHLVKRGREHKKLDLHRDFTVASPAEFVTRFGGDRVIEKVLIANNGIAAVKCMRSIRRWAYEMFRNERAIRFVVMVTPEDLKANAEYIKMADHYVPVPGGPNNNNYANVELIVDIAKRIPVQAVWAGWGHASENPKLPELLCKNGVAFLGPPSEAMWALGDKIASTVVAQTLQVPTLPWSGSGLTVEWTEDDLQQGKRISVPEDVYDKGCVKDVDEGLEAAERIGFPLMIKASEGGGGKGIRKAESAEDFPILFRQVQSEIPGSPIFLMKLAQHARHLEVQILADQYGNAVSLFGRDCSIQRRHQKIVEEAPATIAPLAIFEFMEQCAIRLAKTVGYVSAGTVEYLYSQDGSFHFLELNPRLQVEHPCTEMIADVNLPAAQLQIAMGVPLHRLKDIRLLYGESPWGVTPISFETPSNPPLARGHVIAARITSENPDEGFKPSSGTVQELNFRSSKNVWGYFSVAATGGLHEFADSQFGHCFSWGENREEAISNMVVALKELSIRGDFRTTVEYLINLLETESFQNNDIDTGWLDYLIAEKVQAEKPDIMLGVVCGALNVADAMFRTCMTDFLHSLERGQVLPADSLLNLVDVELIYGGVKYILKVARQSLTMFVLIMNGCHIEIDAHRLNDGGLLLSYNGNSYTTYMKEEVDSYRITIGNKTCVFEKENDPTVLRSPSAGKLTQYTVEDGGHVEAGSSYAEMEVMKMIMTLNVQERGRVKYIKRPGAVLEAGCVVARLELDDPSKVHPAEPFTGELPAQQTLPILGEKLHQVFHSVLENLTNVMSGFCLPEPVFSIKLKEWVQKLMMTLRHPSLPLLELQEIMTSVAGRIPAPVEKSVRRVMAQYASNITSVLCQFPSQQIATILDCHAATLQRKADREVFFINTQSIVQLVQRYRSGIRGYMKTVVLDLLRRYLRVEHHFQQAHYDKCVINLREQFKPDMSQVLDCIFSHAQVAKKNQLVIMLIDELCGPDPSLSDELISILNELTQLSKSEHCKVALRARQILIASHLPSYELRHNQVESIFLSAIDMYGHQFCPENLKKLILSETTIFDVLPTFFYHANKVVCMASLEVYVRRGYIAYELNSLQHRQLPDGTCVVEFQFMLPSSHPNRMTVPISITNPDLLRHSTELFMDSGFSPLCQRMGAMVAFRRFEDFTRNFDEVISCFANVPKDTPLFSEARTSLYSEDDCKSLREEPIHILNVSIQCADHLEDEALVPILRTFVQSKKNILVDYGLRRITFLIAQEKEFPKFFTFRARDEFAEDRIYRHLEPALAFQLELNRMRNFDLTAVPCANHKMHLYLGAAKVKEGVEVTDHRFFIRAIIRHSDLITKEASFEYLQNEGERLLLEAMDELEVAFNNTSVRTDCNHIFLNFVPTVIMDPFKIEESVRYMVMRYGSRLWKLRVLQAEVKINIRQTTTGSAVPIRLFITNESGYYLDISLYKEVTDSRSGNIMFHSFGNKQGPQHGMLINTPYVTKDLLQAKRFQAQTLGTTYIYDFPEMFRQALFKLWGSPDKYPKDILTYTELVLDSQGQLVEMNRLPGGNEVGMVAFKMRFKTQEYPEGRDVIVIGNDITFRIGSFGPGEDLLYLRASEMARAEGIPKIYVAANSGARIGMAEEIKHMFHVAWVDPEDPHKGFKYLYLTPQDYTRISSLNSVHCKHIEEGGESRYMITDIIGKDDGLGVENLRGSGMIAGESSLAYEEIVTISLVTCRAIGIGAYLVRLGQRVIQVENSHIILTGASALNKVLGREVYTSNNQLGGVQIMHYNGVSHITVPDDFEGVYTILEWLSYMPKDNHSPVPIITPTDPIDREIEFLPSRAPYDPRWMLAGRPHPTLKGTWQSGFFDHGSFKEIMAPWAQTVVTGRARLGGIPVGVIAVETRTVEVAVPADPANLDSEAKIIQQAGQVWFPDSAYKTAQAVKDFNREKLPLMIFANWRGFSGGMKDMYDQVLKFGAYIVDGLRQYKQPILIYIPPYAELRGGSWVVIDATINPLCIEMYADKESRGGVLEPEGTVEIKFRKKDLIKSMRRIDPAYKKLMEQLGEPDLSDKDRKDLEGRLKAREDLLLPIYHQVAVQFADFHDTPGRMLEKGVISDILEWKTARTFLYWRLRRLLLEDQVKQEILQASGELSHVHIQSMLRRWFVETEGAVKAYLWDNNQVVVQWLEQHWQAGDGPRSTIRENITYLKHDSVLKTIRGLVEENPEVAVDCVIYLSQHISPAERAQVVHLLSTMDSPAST
For `CC(=O)N[C@@H](C)c1ccc(OC2CCN(c3ccnc(Oc4cccnc4)c3)C2)cc1` (stereo partly drawn) [Example 1.68], the IC50 stood at 354 nM.

Molecule `CC(=O)N[C@@H](C)c1ccc(OC2CCN(c3ccnc(OCC4CC4(F)F)c3)C2)cc1` (stereo partly drawn) [Example 1.19] had a half-maximal inhibitory concentration (IC50) of 54 nM.

Molecule `C[C@H](NC(=O)CO)c1ccc(OC2CCN(c3cccc(C(F)(F)F)n3)C2)cc1` (stereo partly drawn) [Example 6.2] gave a concentration for half-maximal inhibition (IC50) of 614 nM.

For `CC(=O)N[C@@H](C)c1ccc(O[C@@H]2CCN(c3cccc(N(C)C(C)C)n3)C2)cc1` [Example 10.31], the 50% inhibitory concentration (IC50) was 314 nM.

Molecule `CC(=O)N[C@@H](C)c1ccc(OC2CCN(c3ccc(OCC(C)(C)F)cn3)C2)cc1` (stereo partly drawn) [Example 1.87] yielded a concentration for half-maximal inhibition (IC50) of 677 nM.

Consider `Cc1occc1C(=O)N[C@@H](C)c1ccc(OC2CCN(c3ccnc(OC(C)C)c3)C2)cc1` (stereo partly drawn) [Example 2.12], for which inhibition was half-maximal at 921 nM (IC50).

`Cc1nocc1C(=O)N[C@@H](C)c1ccc(OC2CCN(c3ccnc(OCC(F)F)c3)C2)cc1` (stereo partly drawn) [Example 2.95] displayed an IC50 of 49 nM.

In turn, `CCN(CC)c1cccc(N2CC[C@@H](Oc3ccc([C@H](C)NC(C)=O)cc3)C2)n1` [Example 10.27] displayed an IC50 of 123 nM.

Consider `CCCOc1cc(C)c(N2CCC(Oc3ccc([C@H](C)NC(C)=O)cc3)C2)cn1` (stereo partly drawn) [Example 1.51], for which half-maximal inhibition (IC50) was put at 401 nM.

In the case of `CC(=O)N[C@@H](C)c1ccc(O[C@@H]2CCN(c3cccc(N4CCCCC4)n3)C2)cc1` [Example 10.4], the IC50 is 261 nM.

The molecule `CC(=O)N[C@@H](C)c1ccc(O[C@@H]2CCN(c3cccc(N4CCC(F)(F)CC4)n3)C2)cc1` [Example 10.34] showed a half-maximal inhibitory concentration (IC50) of 464 nM.

`CCCOc1ccc(N2CC[C@@H](Oc3ccc([C@H](C)NC(C)=O)cc3)C2)c(OC)n1` [Example 1.130] yielded an IC50 of 233 nM.

As for `CC(=O)N[C@@H](C)c1ccc(O[C@@H]2CCN(c3cccc(N(C)C4CCC4)n3)C2)cc1` [Example 1.134], the IC50 was 102 nM.

As for `COCCN(C)C(=O)N[C@@H](C)c1ccc(OC2CCN(c3ccc(OCC4CC4(F)F)cn3)C2)cc1` (stereo partly drawn) [Example 3.7], inhibition was half-maximal at 444 nM (IC50).

`C[C@H](NC(=O)N(C)C)c1ccc(OC2CCN(c3ccnc(N4CCC(F)(F)C4)c3F)C2)cc1` (stereo partly drawn) [Example 3.22]: the IC50 stood at 50 nM.

Take `CC(=O)N[C@@H](C)c1ccc(OC2CCN(c3ccc(OCCCF)nc3)C2)cc1` (stereo partly drawn) [Example 1.88]: the IC50 came to 423 nM.

As to `CC(=O)N[C@@H](C)c1ccc(O[C@@H]2CCN(c3ccnc(N(C)CC(F)(F)F)c3F)C2)cc1` [Example 1.112], half-maximal inhibition (IC50) required 68 nM.

As for `CC(=O)N[C@@H](C)c1ccc(O[C@@H]2CCN(c3ccnc(OCc4cccc(F)c4)c3)C2)cc1` [Example 9.21], the half-inhibitory concentration (IC50) came out at 477 nM.

In turn, `CCCOc1cc(N2CCC(Oc3ccc([C@H](C)NC(C)=O)cc3)C2)ccn1` (stereo partly drawn) [Example 1.16] displayed a half-inhibitory concentration (IC50) of 114 nM.

As to `CC(=O)N[C@@H](C)c1ccc(O[C@@H]2CCN(c3ccnc(OCC(F)F)c3C)C2)cc1` [Example 9.54], the IC50 was 115 nM.

Take `CC(=O)Nc1cc(C(=O)N[C@@H](C)c2ccc(OC3CCN(c4ccnc(OC(C)C)c4)C3)cc2)ccn1` (stereo partly drawn) [Example 2.26]: the midpoint of inhibition, the IC50, lay at 466 nM.

Consider `CC(C)COc1cc(N2CC[C@@H](Oc3ccc([C@H](C)NC(=O)C4CC4)cc3)C2)ccn1` [Example 9.36], for which the IC50 turned out to be 209 nM.

In turn, `COC(C)(C)COc1nccc(N2CC[C@@H](Oc3ccc([C@H](C)NC(C)=O)cc3)C2)c1F` [Example 9.87] returned an IC50 of 280 nM.

Molecule `C[C@H](NC(=O)c1cnn(C)c1N)c1ccc(OC2CCN(c3ccnc(OCC4CC4)c3)C2)cc1` (stereo partly drawn) [Example 2.82] gave an IC50 of 300 nM.

Turning to `CC(=O)N[C@@H](C)c1ccc(OC2CCN(c3ncc(OCCC4CC4)cc3F)C2)cc1` (stereo partly drawn) [Example 1.34], half-maximal inhibition (IC50) was put at 434 nM.

On to `CCCOc1ccc(N2CC[C@@H](Oc3ccc([C@H](C)NC(=O)c4sc(NC(C)=O)nc4C)cc3)C2)nc1` [Example 1.50], for which the 50% inhibitory concentration (IC50) amounted to 170 nM.

With `CC(=O)N[C@@H](C)c1ccc(O[C@@H]2CCN(c3ccnc(OCC4CCC4)c3)C2)cc1` [Example 9.15], half-maximal inhibition (IC50) was put at 40 nM.

In turn, `CC(=O)N[C@@H](C)c1ccc(OC2CCN(c3ccc(OCC(C)C)cn3)C2)cc1` (stereo partly drawn) [Example 1.8] showed an IC50 of 375 nM.

On to `C[C@H](NC(=O)C1CC1)c1ccc(OC2CCN(c3ccc(OCC4CC4(F)F)cn3)C2)cc1` (stereo partly drawn) [Example 2.56], for which inhibition was half-maximal at 175 nM (IC50).

`COC(=O)N[C@@H](C)c1ccc(OC2CCN(c3ccnc(OCC4CC4(F)F)c3F)C2)cc1` (stereo partly drawn) [Example 4.6] gave an IC50 of 68 nM.

`CC(=O)N[C@@H](C)c1ccc(OC2CCN(c3ccc(C4CC4)cn3)C2)cc1` (stereo partly drawn) [Example 1.70]: half-maximal inhibition (IC50) was put at 722 nM.

On to `COCC(=O)Nc1nc(C)c(C(=O)N[C@@H](C)c2ccc(OC3CCN(c4ccc(OCC5CC5(F)F)cn4)C3)cc2)s1` (stereo partly drawn) [Example 2.120], for which the 50% inhibitory concentration (IC50) amounted to 37 nM.

`CC(=O)N[C@@H](C)c1ccc(OC2CCN(c3ccnc(OCC4CC4)c3)C2)cc1` (stereo partly drawn) [Example 1.15] displayed an IC50 of 60 nM.

For `CC(=O)N[C@@H](C)c1ccc(OC2CCN(c3ccc(OCCC4CC4)cn3)C2)cc1` (stereo partly drawn) [Example 1.31], half-maximal inhibition (IC50) required 139 nM.

`CC(=O)N[C@@H](C)c1ccc(O[C@@H]2CCN(c3ccnc(OCC4CC4)c3C)C2)cc1` [Example 9.57] showed a half-inhibitory concentration (IC50) of 55 nM.

In the case of `CC(=O)N[C@@H](C)c1ccc(OC2CCN(c3cc(OCC4CC4)ncc3F)C2)cc1` (stereo partly drawn) [Example 1.73], the half-maximal inhibitory concentration (IC50) was found to be 59 nM.

`CC(=O)N[C@@H](C)c1ccc(O[C@@H]2CCN(c3ccnc(N4CCCC4)c3Cl)C2)cc1` [Example 1.148] displayed an IC50 of 47 nM.

`CC(=O)N[C@@H](C)c1ccc(O[C@@H]2CCN(c3cc(Cl)ncc3C)C2)cc1` [Example 8.2]: the half-inhibitory concentration (IC50) stood at 565 nM.

For the molecule `CC(=O)N[C@@H](C)c1ccc(OC2CCN(c3nc(C(F)(F)F)ccc3F)C2)cc1` (stereo partly drawn) [Example 1.36], the IC50 is 168 nM.

The molecule `CCC(=O)N[C@@H](C)c1ccc(OC2CCN(c3ccc(OCC4CC4(F)F)cn3)C2)cc1` (stereo partly drawn) [Example 2.33] yielded a 50% inhibitory concentration (IC50) of 55 nM.

Molecule `C[C@H](NC(=O)CC#N)c1ccc(OC2CCN(c3ccnc(OCC4CC4)c3)C2)cc1` (stereo partly drawn) [Example 2.71] had an IC50 of 110 nM.

Molecule `C[C@H](NC(=O)CCC#N)c1ccc(OC2CCN(c3cccc(C(F)(F)F)n3)C2)cc1` (stereo partly drawn) [Example 2.42] showed a 50% inhibitory concentration (IC50) of 675 nM.

`C[C@H](NC(=O)N(C)C)c1ccc(OC2CCN(c3ccc(OCC4CC4(F)F)cn3)C2)cc1` (stereo partly drawn) [Example 1.54] had a 50% inhibitory concentration (IC50) of 140 nM.

As to `CCC(=O)Nc1nc(C)c(C(=O)N[C@@H](C)c2ccc(O[C@@H]3CCN(c4ccnc(NCC(F)F)c4Cl)C3)cc2)s1` [Example 1.143], the 50% inhibitory concentration (IC50) is 116 nM.

On to `C[C@H](NC(=O)c1ccno1)c1ccc(OC2CCN(c3ccnc(OCC4CC4)c3)C2)cc1` (stereo partly drawn) [Example 2.85], for which the concentration for half-maximal inhibition (IC50) came out at 105 nM.

As for `CCCN(C)c1nccc(N2CC[C@@H](Oc3ccc([C@H](C)NC(C)=O)cc3)C2)c1F` [Example 1.103], the half-maximal inhibitory concentration (IC50) was determined as 70 nM.

On to `CC(=O)N[C@@H](C)c1ccc(O[C@@H]2CCN(c3ccc(OCC(F)F)cn3)C2)cc1` [Example 11.1, N—((S)-1-(4-((R)-1-(5-(2,2-Difluoroethoxy)pyridin-2-yl)pyrrolidin-3-yloxy)phenyl)ethyl)acetamide], for which the IC50 turned out to be 510 nM.

`CC(=O)N[C@@H](C)c1ccc(O[C@@H]2CCN(c3ccnc(N4CCCC4)c3F)C2)cc1` [Example 10.16] returned a concentration for half-maximal inhibition (IC50) of 35 nM.
